In patent publication US4181657A, “2-Aminooctahydroindolo[2,3-a]quinolizines useful in treating cardiovascular disorders” (Miles Laboratories, Inc., priority 1978, dated 1980):

Columns and labels:
Type in all cases: in vivo
[1] = test system: ventricular arrhythmia produced by chloroform; assay: Antiarrhythmic activity: protection from chloroform-induced ventricular arrhythmia in mice (Lawson model); settings: mouse
Protocol: The antiarrhythmic activity of the compounds of this invention was determined in the experimental model described by J. W. Lawson (J. Pharmacol. Exper. Therap. 160:22-31, 1968). Test compounds were administered to groups of 5 mice at an intraperitoneal dose of 31 mg/kg. Ten minutes after injection each mouse was placed in a covered 300 ml glass beaker which contained cotton saturated with chloroform. The animal was observed closely and removed from the beaker immediately after respiratory arrest. The heart was quickly exposed by making an incision through the abdomen, diaphragm, thorax and pericardium for visual inspection of ventricular rate and rhythm. Ventricular contractions were counted for 30 seconds and animals with a rate not exceeding 100 beats per 30 seconds were considered protected from the ventricular arrhythmia produced by chloroform. Compounds protecting at least 3 of the 5 mice were subsequently tested at various doses and the results obtained were used to calculate the mean effective doses (ED50) and 95% confidence limits after the method of Litchfield and Wilcoxon (J. Pharmacol. Exper. Therap. 96:99-113, 1949). Table A presents the results obtained in the antiarrhythmic study.

Systolic Blood Pressure = assay: Antihypertensive activity: indirect systolic blood pressure in renal hypertensive rats; settings: rat, 31 mg/kg p.o., * in table = statistically significant change from control
Protocol: Rats were made hypertensive by applying a figure of eight ligature to one kidney and removing the contralateral kidney two weeks later. At least four weeks after the second operation the animals were subjected to indirect systolic blood pressure measurements with an occluding cuff and pulse sensor system applied to the tail. Pressure measurements were made before and 1,2,4,6 and 8 hours after oral administration of the test compounds at a dose of 31 mg/kg. Each compound was tested in 5 or 10 rats. Statistical significance of differences between control and post treatment values was determined by Wilcoxon's signed rank test (F. Wilcoxon and R. A. Wilcox, Some Rapid Approximate Statistical Procedures, Lederle Laboratories, Pearl River, 1964).

dog heart in situ = assay: Antianginal activity: aortic-coronary sinus difference in oxygen (myocardial oxygen consumption) in anesthetized dogs; settings: 1 mg/kg i.v.
Protocol: Angina pectoris is a clinical condition of hypoxia that results from an imbalance in myocardial oxygen supply and demand. A drug reducing oxygen demand is useful in the treatment of angina pectoris, as has been the case with nitroglycerin and the beta-adrenergic blocking agents like propranolol (J. R. Paratt, Advan. Drug Res. 9:103-134, 1974). Accordingly,the antianginal activity of 2-substituted indoloquinolizines was evaluated by assessing their capacity to reduce oxygen consumption by the dog heart in situ. This method allows measurement of the difference in oxygen content of the arterial and venous blood.
Mongrel dogs were anesthetized with pentobarbital and cannulas inserted in the trachea and in a femoral vein for artificial respiration with room air and for injection of test compounds, respectively. Heparin was administered intravenously to prevent blood clotting. The chest was opened at the sternal midline and an additional cannula introduced in the coronary sinus. Samples of blood were obtained from the coronary sinus cannula and from the thoracic aorta by direct puncture of the vessel. Partial pressure of oxygen in the samples was determined with a blood gas analyzer. Test compounds were injected intravenously at a dose of 1 mg/kg; oxygen measurements were made before administration and at 1, 5, 10, 20, 30, 40, 50 and 60 min after administration. One animal was used per test compound. As the standard of comparison, nitroglycerin was administered to a test animal and measurements were made in a similar manner.
Differences between partial pressure values in arterial and venous blood samples were calculated for each measurement. Since coronary sinus blood is representative of the venous effluent from the heart, these differences reflect the consumption of oxygen by the myocardium. Thus, the decrease in arteriovenous oxygen difference produced by the compounds by this invention indicates a reduction in myocardial oxygen consumption.

SMILES: CC(C)NC1CCN2CCc3c(n(Cc4ccccc4)c4ccccc34)C2C1.Cl.Cl.O (stereo not shown) [TR3687, 12-benzyl-2-isopropylamino-1,2,3,4,6,7,12,12b-octahydroindolo[2,3-a]quinolizine dihydrochloride monohydrate]
- ED50 ([1]; ip, 10 min, i.p., 10 min before chloroform, 95% confidence limits in parentheses, read-out: ED50 (95% C.L.)): 19 mg/kg
- mice protected of 5 ([1]; 31 mg/kg i.p.): at least 3 of 5 mice
- Change in Systolic Blood Pressure at 1 hr (Systolic Blood Pressure; 1 hr): -2 mmHg
- Change in Systolic Blood Pressure at 2 hr (Systolic Blood Pressure; 2 hr): +16 mmHg
- Change in Systolic Blood Pressure at 4 hr (Systolic Blood Pressure; 4 hr): +18 mmHg
- Change in Systolic Blood Pressure at 6 hr (Systolic Blood Pressure; 6 hr): +18 mmHg
- Change in Systolic Blood Pressure at 8 hr (Systolic Blood Pressure; 8 hr): +9 mmHg
- Arterio-Venous Difference in Oxygen Partial Pressure at 1 min (dog heart in situ; 1 min): 15 mmHg
- Arterio-Venous Difference in Oxygen Partial Pressure at 5 min (dog heart in situ; 5 min): 22 mmHg
- Arterio-Venous Difference in Oxygen Partial Pressure at 10 min (dog heart in situ; 10 min): 23 mmHg
- Arterio-Venous Difference in Oxygen Partial Pressure at 20 min (dog heart in situ; 20 min): 20 mmHg
- Arterio-Venous Difference in Oxygen Partial Pressure at 30 min (dog heart in situ; 30 min): 20 mmHg
- Arterio-Venous Difference in Oxygen Partial Pressure at 40 min (dog heart in situ; 40 min): 20 mmHg
- Arterio-Venous Difference in Oxygen Partial Pressure at 50 min (dog heart in situ; 50 min): 23 mmHg
- Arterio-Venous Difference in Oxygen Partial Pressure at 60 min (dog heart in situ; 60 min): 23 mmHg
- antianginal activity (conclusion in words) (dog heart in situ; based upon comparison with nitroglycerin, named compounds 'particularly'): antianginal activity is seen
